ChEMBL document CHEMBL1201862, “PubChem BioAssay data set” (2004)
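Where inhibition never reached the appropriate level, the endpoint shown equals the highest concentration tested. Otherwise, values were interpolated linearly from a five-concentration, 48-hour dose response in 96-well plates. The concentration for 50% growth inhibition is given as GI50.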 Activity calls are given as the source filed them. Rule as the data show it: active = GI50 up to about 1.1 µM and inactive = higher.

Assays:
Assay in all cases: inhibition of tumour cell growth, NCI panel, 48 h
[1] = system: 786-0
[2] = system: A498
[3] = system: CAKI-1
[4] = system: HCT-15
[5] = system: HOP-92
[6] = system: IGROV-1
[7] = system: NCI-H23
[8] = system: NCI-H460
[9] = system: OVCAR-4
[10] = system: OVCAR-5
[11] = system: RXF 393
[12] = system: SF-295
[13] = system: M14
[14] = system: MOLT-4
[15] = system: SK-OV-3

Row | Structure (SMILES) | GI50 [1] | GI50 [2] | GI50 [3] | GI50 [4] [µM] | GI50 [5] | GI50 [6] | GI50 [7] | GI50 [8] | GI50 [9] | GI50 [10] | GI50 [11] | GI50 [12] | GI50 [13] | GI50 [14] | GI50 [15]
1 | C[C@@]12CCCC(=O)N1[C@@H](CO)C(c1ccccc1)O2 (stereo partly drawn) | > 100 µM (inactive) | > 100 µM (inactive) | > 100 µM (inactive) | > 100 | > 100 µM (inactive) | > 100 µM (inactive) | > 100 µM (inactive) | > 100 µM (inactive) | > 100 µM (inactive) | > 100 µM (inactive) | > 100 µM (inactive) | > 100 µM (inactive) | – | – | –
2 | Cc1cn(C2CC(n3cncn3)C(C(C)O)O2)c(=O)[nH]c1=O (stereo not drawn) | > 100 µM (inactive) | – | – | > 100 | > 100 µM (inactive) | > 100 µM (inactive) | > 100 µM (inactive) | > 100 µM (inactive) | > 100 µM (inactive) | > 100 µM (inactive) | > 100 µM (inactive) | > 100 µM (inactive) | > 100 µM (inactive) | > 100 µM (inactive) | > 100 µM (inactive)
3 | O=C1N(c2ccccc2)C(=O)C2(SC=NN2Cc2ccccc2)N1c1ccccc1 (stereo not drawn) | > 100 µM (inactive) | > 100 µM (inactive) | > 100 µM (inactive) | – | > 100 µM (inactive) | > 100 µM (inactive) | > 100 µM (inactive) | > 100 µM (inactive) | > 100 µM (inactive) | – | > 100 µM (inactive) | > 100 µM (inactive) | > 100 µM (inactive) | > 100 µM (inactive) | > 100 µM (inactive)
4 | CC(C)NC1CCCCC2c3cc(F)ccc3[C@]12O (stereo partly drawn) | > 100 µM (inactive) | > 100 µM (inactive) | > 100 µM (inactive) | > 100 | – | > 100 µM (inactive) | > 100 µM (inactive) | > 100 µM (inactive) | > 100 µM (inactive) | > 100 µM (inactive) | > 100 µM (inactive) | > 100 µM (inactive) | > 100 µM (inactive) | > 100 µM (inactive) | > 100 µM (inactive)
5 | CN1C2C=C(c3ccccc3)CC1CC2 (stereo not drawn) | > 100 µM (inactive) | > 100 µM (inactive) | – | > 100 | > 100 µM (inactive) | > 100 µM (inactive) | > 100 µM (inactive) | > 100 µM (inactive) | – | > 100 µM (inactive) | > 100 µM (inactive) | > 100 µM (inactive) | > 100 µM (inactive) | > 100 µM (inactive) | > 100 µM (inactive)
6 | BrC1=CC=C2NC=CC3=CC=NC1C32 (stereo not drawn) | 8.34 µM (inactive) | 30.3 µM (inactive) | – | 18.9 | 15.7 µM (inactive) | 25.6 µM (inactive) | 7.71 µM (inactive) | 2.75 µM (inactive) | 27.7 µM (inactive) | 19.1 µM (inactive) | 16 µM (inactive) | 8.36 µM (inactive) | 18 µM (inactive) | 2.75 µM (inactive) | 25.1 µM (inactive)
7 | CC1(C)O[C@@H](CCl)C[C@@H](C#N)O1 | > 100 µM (inactive) | > 100 µM (inactive) | > 100 µM (inactive) | – | > 100 µM (inactive) | > 100 µM (inactive) | > 100 µM (inactive) | > 100 µM (inactive) | > 100 µM (inactive) | > 100 µM (inactive) | > 100 µM (inactive) | > 100 µM (inactive) | > 100 µM (inactive) | > 100 µM (inactive) | > 100 µM (inactive)
8 | CNS(=O)(=O)NN(C)S(=O)(=O)c1ccc(OC)cc1 | > 100 µM (inactive) | > 100 µM (inactive) | > 100 µM (inactive) | > 100 | – | > 100 µM (inactive) | > 100 µM (inactive) | – | > 100 µM (inactive) | – | 31 µM (inactive) | > 100 µM (inactive) | > 100 µM (inactive) | > 100 µM (inactive) | –
9 | O=C(c1ccccc1)N1CCc2c([nH]c3ccccc23)C1 | 54.7 µM (inactive) | – | 28.4 µM (inactive) | 49.1 | 48.6 µM (inactive) | 52.2 µM (inactive) | 33.4 µM (inactive) | 41.7 µM (inactive) | 53 µM (inactive) | > 100 µM (inactive) | – | 36.6 µM (inactive) | 34 µM (inactive) | 24.5 µM (inactive) | 85.3 µM (inactive)
10 | Cc1cc2c(=O)cc(-c3ccc(F)cc3)oc2c(C(=O)O)c1C | > 100 µM (inactive) | – | > 100 µM (inactive) | > 100 | – | > 100 µM (inactive) | > 100 µM (inactive) | > 100 µM (inactive) | > 100 µM (inactive) | > 100 µM (inactive) | > 100 µM (inactive) | > 100 µM (inactive) | > 100 µM (inactive) | > 100 µM (inactive) | > 100 µM (inactive)
11 | C[C@@H](c1ccccc1)N(CC#N)C1CCC[C@H]1O (stereo partly drawn) | > 100 µM (inactive) | > 100 µM (inactive) | – | > 100 | > 100 µM (inactive) | > 100 µM (inactive) | > 100 µM (inactive) | > 100 µM (inactive) | > 100 µM (inactive) | – | > 100 µM (inactive) | > 100 µM (inactive) | > 100 µM (inactive) | > 100 µM (inactive) | > 100 µM (inactive)
